According to US6271205A, “Cancer treatment by expression of differentiation factor receptor” (University of Massachusetts Medical Center, priority 1997, dated 2001):

Test system: C6 rat glioma cells
Experiment: Induction of cell cycle arrest in C6 cells with aphidicolin
Type: cell-based
Settings: 0.3 μM aphidicolin, 5 days
Method: SH-SY5Y cells were grown at 37° C. in RPMI 1640 medium (GIBCO BRL, Gaithersburg, Md.) supplemented with 10% fetal bovine serum (Sigma Chemicals, St. Louis, Mo.) and 100 μg/ml of gentamicin. For differentiation studies, cells were plated (1.5×10^5 to 5×10^5 cells/dish) in 35-mm Primaria dishes (Falcon, Franklin Lakes, N.J.). One hundred ng/ml NGF (2.5 S; Bioproducts for Science, Indianapolis, Ind.) and/or 0.3 μM aphidicolin (Sigma Chemicals, St. Louis, Mo.) were added every 2-3 days. Cell proliferation was assessed by BrdU labeling, as described by LoPresti et al. (Cell Growth Diff. (1992) 3:627-635).
0.3 μM aphidicolin (Sigma, St. Louis Mo.) was added to logarithmically growing C6 rat glioma cells (ATCC, CCL 107, Rockville, Md.) in MEM medium supplemented with 10% fetal bovine serum (Sigma, St. Louis, Mo.). After 5 days incubation, growth arrested cells were removed with trypsin and 2.0×10^4 cells were seeded on polyornithine coated coverslips (polyornithine hydrobromide, Sigma) containing aphidicolin supplemented media for another five days in 24-well plates. Coverslips were then fixed in either methanol (10 minutes at -20° C.) or 4% paraformaldehyde (20 minutes at room temperature) for immunohistochemical analysis.
Less than 5% of cells were stained to any extent with antibodies to GFAP, medium and heavy chain neurofilament (SMI-312) or MAP-2. […]

Structure (SMILES): C[C@@]1(CO)[C@H](O)CC[C@@]2(C)[C@H]1CC[C@H]1C[C@@H]3C[C@@]12CC[C@]3(O)CO [aphidicolin]
- cells extending branched complex neurite-like processes: 48%
- BrDU labeling (proliferation) (MEM + 10% FBS, untreated cells 52%): 7.2%
